Results: the METLIN SMRT retention time set (Domingo-Almenara et al. 2019)

Assay: gradient 5% acetonitrile 3 min, to 50% in 2 min, to 85% in 15 min, held 3 min, 100 µL/min
Conditions: column: Zorbax Extend-C18 2.1 x 50 mm; eluents: water / acetonitrile, 0.1% formic acid
Outline: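 The system's dead and dwell volumes were 40 μL and 900 μL, with a Zorbax Extend-C18 column (2.1 × 50 mm, 1.8 μm) run at 100 μL/min in water and acetonitrile containing 0.1% formic acid each. Pure standards were analyzed in mixtures of ~100 molecules by HPLC–quadrupole time-of-flight mass spectrometry in positive and negative ionization mode. Retention time was assigned from computationally picked, manually inspected adduct peaks.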

CCn1c(=O)c2ccn(CC(=O)N3CCN(Cc4ccc5c(c4)OCO5)CC3)c2n(CC)c1=O
RP-LC retention time: 591 s

COc1ccc(-c2cc3n(n2)CCCN(C(=O)NCCc2ccccc2)C3)cc1
RP-LC retention time: 814 s

Cc1ccc(C(=O)N2CCCC2COc2ccc(C(=O)NC(C)C)cc2)cc1F (configuration not stated)
RP-LC retention time: 889 s

O=S(=O)(c1cccnc1)N1CC(c2noc(C3CCCN3CC3CC3)n2)C1 (configuration not stated)
RP-LC retention time: 592 s

Cn1cnc2cc(-c3noc(CNC(=O)c4ccco4)n3)ccc21
RP-LC retention time: 585 s

CCn1c(=O)c(N2CCC(NC(=O)NC)CC2)nc2ccccc21
RP-LC retention time: 759 s

O=C(NCCCc1ccccc1)c1n[nH]c2c1CN(C(=O)C1CC1)CC2
RP-LC retention time: 789 s

COc1ccc(NC(=O)C2CCCN2S(=O)(=O)c2cc3c(cc2C)NC(=O)CO3)cc1Cl (configuration not stated)
RP-LC retention time: 775 s

O=C1NC(=O)c2cc(Nc3ccccc3)c(Nc3ccccc3)cc21
RP-LC retention time: 1040 s

CC(C)c1cc(=O)n2c(n1)SCC2CC(=O)Nc1cccc(F)c1 (configuration not stated)
RP-LC retention time: 763 s

CC1=C(c2ccccc2)S(=O)(=O)N=C1N1CCCN(C(=O)Nc2cccc(F)c2)CC1
RP-LC retention time: 849 s

CSc1ccc(Cl)c(-c2nc(-c3ccc4c(c3)oc(=O)n4C)no2)c1
RP-LC retention time: 1170 s

Cc1cc(=O)n(CC(=O)Nc2ccc3c(c2)OCO3)c(-c2ccc(F)cc2)n1
RP-LC retention time: 974 s

CCc1ccccc1NC(=O)C1CCCN(c2nc3c(s2)c(C)nn3-c2cccc(F)c2)C1 (configuration not stated)
RP-LC retention time: 1260 s

O=C(CCCn1nc(-c2cccs2)ccc1=O)Nc1cccc2nsnc12
RP-LC retention time: 728 s

CC1(C)CC(=O)c2c(O)cc(OCC(=O)O)cc2O1
RP-LC retention time: 738 s

N#Cc1ccc(-c2nc(-c3ccc4c(c3)ncn4CCN3CCOCC3)no2)cc1
RP-LC retention time: 624 s

O=C(NCc1ccc(F)cc1)C1CC(=O)N(c2n[nH]c3cccc(F)c23)C1 (configuration not stated)
RP-LC retention time: 707 s

COc1cccc(NC(=O)CCC2CCN(S(=O)(=O)c3ccccc3)CC2)c1
RP-LC retention time: 936 s

COc1ccccc1OCCNc1nc2ccncc2n(C(C)C)c1=O
RP-LC retention time: 573 s

CCOC(=O)Cc1ccc(NC(=O)N2CCCn3nc(-c4cccs4)cc3C2)cc1
RP-LC retention time: 849 s

O=C(c1ccsc1)N1CCCCC1c1nncn1CC1CC1 (configuration not stated)
RP-LC retention time: 681 s

CN1CCC(NC(=O)c2ccc3c(c2)N(S(=O)(=O)c2ccccc2)CC3)CC1
RP-LC retention time: 610 s

CC(C)NC(=O)C1CCN(c2cnc(N3CCSCC3)nc2)CC1
RP-LC retention time: 629 s

COc1ccccc1-c1nnc(NC(=O)c2c[nH]c3ccccc23)o1
RP-LC retention time: 678 s

Cn1cc(-c2nc(C(=O)Nc3cccc(C#N)c3)cs2)c2cccnc21
RP-LC retention time: 946 s

CN(CC(=O)N1CCN(c2ccccc2)CC1)S(=O)(=O)c1ccc2c(c1)CCCC(=O)N2
RP-LC retention time: 737 s

Cc1sc(-c2cc(C(F)(F)F)[nH]n2)cc1S(=O)(=O)N1CCN(c2ccc(F)cc2)CC1
RP-LC retention time: 1110 s

Cc1ccc(S(=O)(=O)N2CCCC(c3nc(-c4cccc(-c5ccnn5C)c4)no3)C2)cc1 (configuration not stated)
RP-LC retention time: 1140 s

O=C(NCc1ccc(F)cc1F)c1nnn2c1COC(c1ccc(Cl)cc1)C2 (configuration not stated)
RP-LC retention time: 1040 s

Cc1ccc(NC(=O)C2CCCN(c3nnc4cccc(C)n34)C2)cc1F (configuration not stated)
RP-LC retention time: 753 s

CN(C)c1ccc(-c2nc3cnc(Br)cn3c2Nc2ccc3c(c2)OCCO3)cc1
RP-LC retention time: 881 s

CNc1ncn(-c2c(C)cccc2C)c(=O)n1
RP-LC retention time: 684 s

CCn1c(=O)c2ccn(CC(=O)NCc3cccnc3)c2n(CC)c1=O
RP-LC retention time: 568 s

Cc1nc(-c2cnccn2)nc2c1CCC(=O)N2Cc1ccco1
RP-LC retention time: 683 s

CC(=O)N1CCCN(C2=NS(=O)(=O)C(c3ccc(C)cc3)=C2C)CC1
RP-LC retention time: 699 s

CCCCCNC(=O)c1ccc2nc(CCc3ccc(NC(=O)C(C)C)cc3)[nH]c2c1
RP-LC retention time: 689 s
